Source: article PMC12730863 (Biomedicines, 2025)

Tests used:
HCT-8 cells [1] = assay: Cytotoxicity assay (MTT, 72 h); format: cell-based, human; conditions: for Fold Resistance / IC50: HCT-8, chemotherapeutic drug alone; for Fold Resistance: relative to IC50 of HCT-8 without inhibitors
Description: (§1) Cells were seeded into 96-well plates at a concentration of 5 × 10^3 cells per well. Following cell attachment, the respective agents were added for a 72-h incubation period. Upon treatment completion, 500 μg/mL MTTwas added and the plates were incubated for 4 h. Subsequently, the supernatant was carefully aspirated, and 50 μL DMSO was added. Absorbance at 570 nm was measured via BioTek Synergy H1 plate reader (Agilent Technologies, Santa Clara, CA, USA). IC50 values were calculated with GraphPad Prism 8.0.

HCT-8/V cells [2] = assay: Cytotoxicity assay (MTT, 72 h); format: cell-based, human; conditions: for IC50 / Fold Resistance: chemotherapeutic drug alone; for Fold Resistance: relative to IC50 of HCT-8 without inhibitors
Description: All cell lines were grown in Dulbecco’s modified Eagle’s medium supplemented with 10% CellMax fetal bovine serum (#SA301.02.V) from Lanzhou Minhai Bio-Engineering Co. (Lanzhou, China) and maintained in a humidified incubator at 37 °C with 5% CO2.
as §1

HCT-8 cells [3] = assay: Drug accumulation assay (flow cytometry); format: cell-based, human; conditions: HCT-8 parental cells
Description: (§2) Fluorescence imaging was performed using an Olympus CKX53 microscope (Tokyo, Japan) to assess the intracellular accumulation of the substrate drugs. Subsequently, cells were harvested, and fluorescent quantitative analysis was conducted using a Beckman CytoFLEX flow cytometer. The data were processed via FlowJo v10.8 software.

HCT-8/V cells [4] = assay: Drug accumulation assay (flow cytometry); format: cell-based, human
Description: as §2

ABCB1 [5] = assay: Western blot of ABCB1 expression in HCT-8/V cells; format: cell-based, human; conditions: 10 μM and 30 μM H89 for 0.5, 3 and 72 h
Description: Cells were placed in pre-cooled lysis buffer (containing 0.1% sodium dodecyl sulfate, 0.5% sodium deoxycholate, 1% Nonidet P-40, 10 ng/mL phenylmethanesulfonyl fluoride and 0.03% aprotinin) and lysed on ice for 30 min. After centrifugation (14,000× g, 10 min), the clear supernatant was collected. Proteins were separated by 10% sodium dodecyl sulfatepolyacrylamidegel electrophoresis and subsequently transferred to polyvinylidene difluoride membranes. The membranes were blocked with 5% BSA at room temperature for 1 h, followed by sequential incubation with primary antibodies specific to the target protein and horseradish peroxidase-conjugated secondary antibodies. Ultimately, signal detection was conducted via chemiluminescence using a gel imaging system from Bio-Rad Laboratories.

ABCB1 [6] = target: T1, ABCB1 (Homo sapiens, UniProt P08183); assay: ABCB1 ATPase activity assay; format: biochemical; conditions: 5 mM Mg2+-ATP, 37 °C, 40 min, luminescence; read-out: IC50 of inhibition of the ATPase activity of ABCB1
T1 construct: purchased Promega Corporation V3601
T1 sequence (P08183 whole entry): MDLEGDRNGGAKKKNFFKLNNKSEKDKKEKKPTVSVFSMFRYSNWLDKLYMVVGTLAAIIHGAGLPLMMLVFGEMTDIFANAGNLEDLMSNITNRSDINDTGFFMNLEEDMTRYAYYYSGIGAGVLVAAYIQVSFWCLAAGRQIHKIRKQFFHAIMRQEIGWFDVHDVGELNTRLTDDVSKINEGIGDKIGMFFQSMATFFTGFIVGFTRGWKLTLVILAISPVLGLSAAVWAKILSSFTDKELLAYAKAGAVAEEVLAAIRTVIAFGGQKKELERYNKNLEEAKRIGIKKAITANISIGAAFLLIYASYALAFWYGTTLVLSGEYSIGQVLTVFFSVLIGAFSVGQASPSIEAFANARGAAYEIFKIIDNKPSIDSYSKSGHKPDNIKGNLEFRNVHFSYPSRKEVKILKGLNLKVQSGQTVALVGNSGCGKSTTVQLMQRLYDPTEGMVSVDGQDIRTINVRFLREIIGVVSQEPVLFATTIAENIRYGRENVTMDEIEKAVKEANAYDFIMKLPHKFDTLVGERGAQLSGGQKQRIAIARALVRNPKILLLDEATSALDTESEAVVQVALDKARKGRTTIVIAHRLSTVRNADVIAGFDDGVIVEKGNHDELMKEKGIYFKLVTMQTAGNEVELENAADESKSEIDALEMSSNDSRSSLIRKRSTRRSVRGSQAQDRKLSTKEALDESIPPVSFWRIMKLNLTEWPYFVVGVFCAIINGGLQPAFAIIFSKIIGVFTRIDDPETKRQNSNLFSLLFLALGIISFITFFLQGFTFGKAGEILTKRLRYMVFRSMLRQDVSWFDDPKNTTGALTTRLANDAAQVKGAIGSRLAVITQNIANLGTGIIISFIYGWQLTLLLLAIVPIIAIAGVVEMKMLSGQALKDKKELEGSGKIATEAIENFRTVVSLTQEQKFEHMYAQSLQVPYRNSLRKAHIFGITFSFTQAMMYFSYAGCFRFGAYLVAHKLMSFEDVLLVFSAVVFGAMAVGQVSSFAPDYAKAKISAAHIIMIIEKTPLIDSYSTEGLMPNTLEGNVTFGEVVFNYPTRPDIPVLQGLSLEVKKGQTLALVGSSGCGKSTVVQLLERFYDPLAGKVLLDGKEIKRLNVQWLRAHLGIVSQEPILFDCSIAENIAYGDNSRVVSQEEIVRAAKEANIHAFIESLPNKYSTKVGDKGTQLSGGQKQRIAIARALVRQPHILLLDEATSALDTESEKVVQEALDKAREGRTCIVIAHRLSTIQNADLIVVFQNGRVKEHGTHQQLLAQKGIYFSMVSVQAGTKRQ
Description: The detection was performed using anABCB1 ATPase Activity Assay Kit (#V3601, Promega Corporation, Madison, WI, USA). […] Subsequently, 5 mM Mg^2+-ATP was introduced to initiate the ATPase activity reaction. […] Finally, the emitted light was measured with a multi-functional microplate reader manufactured by Gene Company Limited (Chai Wan, Hong Kong).

## COc1cccc2c1C(=O)c1c(O)c3c(c(O)c1C2=O)C[C@@](O)(C(=O)CO)C[C@@H]3O[C@H]1C[C@H](N)[C@H](O)[C@H](C)O1 [Doxorubicin, doxorubicin]
HCT-8 cells [1]
  Fold Resistance: 1.0 fold
HCT-8 cells [1]; Homo sapiens, 72 h MTT
  IC50: 0.35 ± 0.081 µM
HCT-8/V cells [2]; Homo sapiens, 72 h MTT
  IC50: 6.98 ± 0.444 µM
HCT-8/V cells [2]
  Fold Resistance: 19.94 fold

## CC[C@]1(O)C[C@H]2CN(CCc3c([nH]c4ccccc34)[C@@](C(=O)OC)(c3cc4c(cc3OC)N(C=O)[C@H]3[C@@](O)(C(=O)OC)[C@H](OC(C)=O)[C@]5(CC)C=CCN6CC[C@]43[C@@H]65)C2)C1 [Vincristine, vincristine]
HCT-8 cells [1]; Homo sapiens, 72 h MTT
  IC50: 0.025 ± 0.002 µM
HCT-8/V cells [2]; Homo sapiens, 72 h MTT
  IC50: > 30 µM

## O=S(=O)(NCCNCC=Cc1ccc(Br)cc1)c1cccc2cnccc12 [H89, N-[2-(p-bromocinnamylamino)ethyl]-5-isoquinolinesulfonamide]
HCT-8 cells [1]; HCT-8, Doxorubicin + 3 μM of the labelled inhibitor
  Fold Resistance to Doxorubicin in combination: 1.06 fold
HCT-8 cells [1]; HCT-8, Doxorubicin + 10 μM of the labelled inhibitor
  Fold Resistance to Doxorubicin in combination: 1.05 fold
HCT-8 cells [1]; HCT-8, Oxaliplatin + 3 μM of the labelled inhibitor
  Fold Resistance to Oxaliplatin in combination: 0.96 fold
HCT-8 cells [1]; HCT-8, Oxaliplatin + 10 μM of the labelled inhibitor
  Fold Resistance to Oxaliplatin in combination: 0.91 fold
HCT-8 cells [1]; HCT-8, Vincristine + 3 μM of the labelled inhibitor
  Fold Resistance to Vincristine in combination: 0.96 fold
HCT-8 cells [1]; HCT-8, Vincristine + 10 μM of the labelled inhibitor
  Fold Resistance to Vincristine in combination: 0.88 fold
HCT-8 cells [1]; HCT-8, at concentrations below 30 μM, 72 h MTT
  Cytotoxicity of H89 alone: low cytotoxicity
HCT-8/V cells [2]; Doxorubicin + 3 μM of the labelled inhibitor
  Fold Resistance to Doxorubicin in combination: 4.53 fold
HCT-8/V cells [2]; Doxorubicin + 10 μM of the labelled inhibitor
  Fold Resistance to Doxorubicin in combination: 1.85 fold
HCT-8/V cells [2]; Oxaliplatin + 3 μM of the labelled inhibitor
  Fold Resistance to Oxaliplatin in combination: 0.89 fold
HCT-8/V cells [2]; Oxaliplatin + 10 μM of the labelled inhibitor
  Fold Resistance to Oxaliplatin in combination: 0.79 fold
HCT-8/V cells [2]; Vincristine + 3 μM of the labelled inhibitor
  Fold Resistance to Vincristine in combination: 5.60 fold
HCT-8/V cells [2]; Vincristine + 10 μM of the labelled inhibitor
  Fold Resistance to Vincristine in combination: 1.88 fold
HCT-8/V cells [2]; at concentrations below 30 μM, 72 h MTT
  Cytotoxicity of H89 alone: low cytotoxicity
HCT-8 cells [3]
  Intracellular accumulation of doxorubicin and rhodamine 123: not observed
HCT-8/V cells [4]; 10 μM H89 vs 10 μM verapamil
  Intracellular accumulation of substrate drugs compared with verapamil: achieved or even exceeded the inhibitory effect of verapamil
HCT-8/V cells [4]; 30 μM H89
  Intracellular rhodamine 123 levels: comparable to that in HCT-8 cells
HCT-8/V cells [4]; 1 h pretreatment, then 10 μM doxorubicin or rhodamine 123 for 2 h
  Intracellular accumulation of doxorubicin and rhodamine 123: elevated doxorubicin and rhodamine 123 levels in HCT-8/V cells dose-dependently
ABCB1 [5]
  ABCB1 protein level relative to β-tubulin: did not alter ABCB1 protein level
ABCB1 [6]
  IC50: 0.246 µM

## O=C1[O][Pt]2([NH][C@@H]3CCCC[C@H]3[NH]2)[O]C1=O [Oxaliplatin, oxaliplatin]
HCT-8 cells [1]; 72 h MTT
  IC50: 9.3 ± 0.549 µM
HCT-8 cells [1]
  Fold Resistance: 1.0 fold
HCT-8/V cells [2]; 72 h MTT
  IC50: 10.1 ± 0.09 µM
HCT-8/V cells [2]
  Fold Resistance: 1.08 fold
